Assays:
CFTR [1] = target: T1, CFTR (Homo sapiens, UniProt P13569); test: Membrane Potential Dye, Enteroid Assay A; assay type: cell-based; conditions: for EC50: read-out: Ent. A EC50
Experimental: Base medium (ADF+++) consisted of Advanced […], 2 mM Glutamax, 10 mM HEPES, 1 μg/mL penicillin/streptomycin.
Intestinal enteroid maintenance medium (IEMMN) consisted of ADF+++, 1× B27 supplement, 1× N2 supplement, 1.25 mM N-acetyl cysteine, 10 mM Nicotinamide, 50 ng/mL hEGF, 10 nM Gastrin, 1 μg/mL hR-spondin-1, 100 ng/mL hNoggin, TGF-b type 1 inhibitor A-83-01, 100 μg/mL Primocin, 10 μM P38 MAPK inhibitor SB202190.
Bath 1 Buffer consisted of 1 mM MgCl2, 160 mM NaCl, 4.5 mM KCl, 10 mM HEPES, 10 mM Glucose, 2 mM CaCl2).
Chloride Free Buffer consisted of 1 mM Magnesium Gluconate, 2 mM Calcium Gluconate, 4.5 mM Potassium Gluconate, 160 mM Sodium Gluconate, 10 mM HEPES, 10 mM Glucose.
Bath 1 Dye Solution consisted of Bath 1 Buffer, 0.04% Pluronic F127, 20 μM Methyl Oxonol, 30 μM CaCCinh-A01, 30 μM Chicago Sky Blue.
Chloride Free Dye Solution consisted of Chloride Free Buffer, 0.04% Pluronic F127, 20 μM Methyl Oxonol, 30 μM CaCCinh-A01, 30 μM Chicago Sky Blue.
Chloride Free Dye Stimulation Solution consisted of Chloride Free Dye Solution, 10 μM forskolin, 100 μM IBMX, and 300 nM Compound III.
Human intestinal epithelial enteroid cells were obtained from the Hubrecht Institute for Developmental Biology and Stem Cell Research, Utrecht, The Netherlands and expanded in T-Flasks as previously described (Dekkers J F, Wiegerinck C L, de Jonge H R, Bronsveld I, Janssens H M, de Winter-de Groot K M, Brandsma A M, de Jong N W M, Bijvelds M J C, Scholte B J, Nieuwenhuis E E S, van den Brink S, Clevers H, van der Ent C K, Middendorp S and M Beekman J M. A functional CFTR assay using primary cystic fibrosis intestinal organoids. Nat Med. 2013 July; 19(7):939-45.).
3. Enteroid Cell Harvesting and Seeding
Cells were recovered in cell recovery solution, collected by centrifugation at 650 rpm for 5 min at 4° C., resuspended in TrypLE and incubated for 5 min at 37° C. Cells were then collected by centrifugation at 650 rpm for 5 min at 4° C. and resuspended in IEMM containing 10 μM ROCK inhibitor (RI). The cell suspension was passed through a 40 μm cell strainer and resuspended at 1×10^6 cells/mL in IEMM containing 10 μM RI. Cells were seeded at 5000 cells/well into multi-well plates and incubated for overnight at 37° C., 95% humidity and 5% CO2 prior to assay.
4. Membrane Potential Dye, Enteroid Assay A
Enteroid cells were incubated with test compound in IEMM for 18-24 hours at 37° C., 95% humidity and 5% CO2. […] Briefly, cells were washed 5 times in Bath 1 Buffer. Bath 1 Dye Solution was added, and the cells were incubated for 25 min at room temperature. Following dye incubation, cells were washed 3 times in Chloride Free Dye Solution. Chloride transport was initiated by addition of Chloride Free Dye Stimulation Solution and the fluorescence signal was read for 15 min. […] Chloride transport was then expressed as a percentage of the chloride transport following treatment with 3 μM N-[(6-amino-2-pyridyl)sulfonyl]-6-(3-fluoro-5-isobutoxy-phenyl)-2-[(4S)-2,2,4-trimethylpyrrolidin-1-yl]pyridine-3-carboxamide, 3 μM (R)-1-(2,2-difluorobenzo[d][1,3]dioxol-5-yl)-N-(1-(2,3-dihydroxypropyl)-6-fluoro-2-(1-hydroxy-2-methylpropan-2-yl)-1H-indol-5-yl)cyclopropanecarboxamide and 300 nM acute N-[2,4-bis(1,1-dimethylethyl)-5-hydroxyphenyl]-1,4-dihydro-4-oxoquinoline-3-carboxamide triple combination control (% Activity).

CFTR [2] = target: T1, CFTR; test: Membrane Potential Dye, Enteroid Assay B; assay type: cell-based; conditions: for EC50: read-out: Ent. B EC50
Summary of the method: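 Activity given as % of a triple-combination reference (1 μM and 3 μM correctors, 300 nM acute potentiator). Enteroids were preincubated 18-24 h with compound; chloride efflux then measured 15 min by methyl oxonol fluorescence after forskolin/IBMX/Compound III stimulation in chloride-free buffer containing CaCCinh-A01 and Chicago Sky Blue.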

T1 sequence (P13569 with tags, fused parts or gaps DEL508-508): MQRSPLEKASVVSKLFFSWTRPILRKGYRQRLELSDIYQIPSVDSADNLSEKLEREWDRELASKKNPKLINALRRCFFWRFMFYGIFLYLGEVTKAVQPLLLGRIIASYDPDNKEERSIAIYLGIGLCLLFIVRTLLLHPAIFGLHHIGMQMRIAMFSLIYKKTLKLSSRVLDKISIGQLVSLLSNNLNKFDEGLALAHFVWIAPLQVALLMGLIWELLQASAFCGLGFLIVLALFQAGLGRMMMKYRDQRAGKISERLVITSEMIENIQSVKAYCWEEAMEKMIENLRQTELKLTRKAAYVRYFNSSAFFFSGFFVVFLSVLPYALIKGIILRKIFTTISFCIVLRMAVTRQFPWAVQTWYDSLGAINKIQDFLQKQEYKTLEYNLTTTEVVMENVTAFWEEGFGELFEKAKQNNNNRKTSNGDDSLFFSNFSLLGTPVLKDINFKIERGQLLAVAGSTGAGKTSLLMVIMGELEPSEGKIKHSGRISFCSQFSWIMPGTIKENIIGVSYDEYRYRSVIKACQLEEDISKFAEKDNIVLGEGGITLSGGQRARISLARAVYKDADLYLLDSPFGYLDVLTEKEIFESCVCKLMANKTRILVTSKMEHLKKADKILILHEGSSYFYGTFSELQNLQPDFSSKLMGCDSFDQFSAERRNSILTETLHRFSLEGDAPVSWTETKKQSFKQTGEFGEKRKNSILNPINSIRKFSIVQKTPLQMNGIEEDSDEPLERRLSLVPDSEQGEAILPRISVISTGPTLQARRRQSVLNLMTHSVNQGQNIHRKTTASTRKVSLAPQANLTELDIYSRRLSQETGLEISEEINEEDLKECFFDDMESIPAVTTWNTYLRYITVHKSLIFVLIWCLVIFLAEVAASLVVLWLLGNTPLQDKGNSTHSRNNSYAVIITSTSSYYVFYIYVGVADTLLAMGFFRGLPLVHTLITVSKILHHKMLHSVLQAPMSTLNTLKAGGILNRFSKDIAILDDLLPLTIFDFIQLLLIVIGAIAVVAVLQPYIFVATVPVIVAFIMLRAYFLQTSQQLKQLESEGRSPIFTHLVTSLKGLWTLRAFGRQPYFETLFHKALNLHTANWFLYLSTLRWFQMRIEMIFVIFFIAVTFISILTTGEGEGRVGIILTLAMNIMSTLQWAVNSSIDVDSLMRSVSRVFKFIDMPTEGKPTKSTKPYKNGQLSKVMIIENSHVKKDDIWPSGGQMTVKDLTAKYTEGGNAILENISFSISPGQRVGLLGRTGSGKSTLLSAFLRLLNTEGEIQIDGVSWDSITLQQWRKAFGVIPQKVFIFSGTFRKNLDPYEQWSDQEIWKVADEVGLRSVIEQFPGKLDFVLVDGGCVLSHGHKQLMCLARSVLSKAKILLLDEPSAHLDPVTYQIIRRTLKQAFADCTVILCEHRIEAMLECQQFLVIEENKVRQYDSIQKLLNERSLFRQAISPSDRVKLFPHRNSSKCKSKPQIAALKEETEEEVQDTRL

| Structure (SMILES) | Ent. A Max Activity (%) (CFTR [1]) | EC50 (CFTR [1]) | Ent. B Max Activity (%) (CFTR [2]) | EC50 (CFTR [2]) |
| --- | --- | --- | --- | --- |
| Cc1cccc(C)c1-c1cc2nc(n1)NS(=O)(=O)c1cccc(c1)C(=O)N(C1CC3(CCN(CCF)CC3)C1)[C@H](CC(C)C)CO2 [Compound 321] | +++ (+++ is >60%) | < 1000 nM | +++ (+++ is >60%) | < 1000 nM |
| Cc1cccc(C)c1-c1cc2nc(n1)NS(=O)(=O)c1cccc(c1)C(=O)N(C1CN(C(=O)OC(C)(C)C)C1)[C@H](CC(C)C)CO2 [Compound 334] | +++ (+++ is >60%) | < 1000 nM | ++ (++ is 30-60%) | < 1000 nM |
| COC(=O)N1CCC2(CC1)CC(N1C(=O)c3cccc(c3)S(=O)(=O)Nc3nc(cc(-c4c(C)cccc4C)n3)OC[C@H]1CC(C)C)C2 [Compound 19, methyl 2-[(11R)-6-(2,6-dimethylphenyl)-11-isobutyl-2,2,13-trioxo-9-oxa-2λ^6-thia-3,5,12,19-tetrazatricyclo[12.3.1.14,8]nonadeca-1(18),4(19),5,7,14,16-hexaen-12-yl]-7-azaspiro[3.5]nonane-7-carboxylate] | +++ (+++ is >60%) | < 1000 nM | +++ (+++ is >60%) | < 1000 nM |
| CC(=O)N1CCC2(CC1)CC(N1C(=O)c3cccc(c3)S(=O)(=O)Nc3nc(cc(-c4c(C)cccc4C)n3)OC[C@H]1CC(C)C)C2 [Compound 16, (11R)-12-(7-Acetyl-7-azaspiro[3.5]nonan-2-yl)-6-(2,6-dimethylphenyl)-11-isobutyl-2,2-dioxo-9-oxa-2λ^6-thia-3,5,12,19-tetrazatricyclo[12.3.1.14,8]nonadeca-1(18),4(19),5,7,14,16-hexaen-13-one] | +++ (+++ is >60%) | < 1000 nM | +++ (+++ is >60%) | < 1000 nM |
| Cc1cccc(C)c1-c1cc2nc(n1)NS(=O)(=O)c1cccc(c1)C(=O)N(C1CC3(CCNCC3)C1)[C@H](CC(C)C)CO2 [Compound 14, (11R)-12-(7-Azaspiro[3.5]nonan-2-yl)-6-(2,6-dimethylphenyl)-11-isobutyl-2,2-dioxo-9-oxa-2λ^6-thia-3,5,12,19-tetrazatricyclo[12.3.1.14,8]nonadeca-1(18),4(19),5,7,14,16-hexaen-13-one] | +++ (+++ is >60%) | 3000 to 30000 nM | +++ (+++ is >60%) | < 1000 nM |
| Cc1cccc(C)c1-c1cc2nc(n1)NS(=O)(=O)c1cccc(c1)C(=O)N(C1CN(C(C)C)C1)[C@H](CC(C)C)CO2 [Compound 319] | +++ (+++ is >60%) | < 1000 nM | +++ (+++ is >60%) | < 1000 nM |
| CCOC(=O)N1CCC2(CC1)CC(N1C(=O)c3cccc(c3)S(=O)(=O)Nc3nc(cc(-c4c(C)cccc4C)n3)OC[C@H]1CC(C)C)C2 [Compound 315] | +++ (+++ is >60%) | < 1000 nM | +++ (+++ is >60%) | < 1000 nM |
| Cc1cccc(C)c1-c1cc2nc(n1)NS(=O)(=O)c1cccc(c1)C(=O)N(C1CC3(CCN(C)CC3)C1)C[C@@H](C)O2 [Compound 179, (10R)-6-(2,6-Dimethylphenyl)-10-methyl-12-(7-methyl-7-azaspiro[3.5]nonan-2-yl)-2,2-dioxo-9-oxa-2λ^6-thia-3,5,12,19-tetrazatricyclo[12.3.1.14,8]nonadeca-1(18),4(19),5,7,14,16-hexaen-13-one] | +++ (+++ is >60%) | 1000 to 3000 nM | – | – |
| Cc1cccc(C)c1-c1cc2nc(n1)NS(=O)(=O)c1cccc(c1)C(=O)N(C1CC3(CCCC3)C1)[C@H](CC(C)C)CO2 [Compound 339] | +++ (+++ is >60%) | < 1000 nM | – | – |
| CC(=O)N1CC2(CC(N3C(=O)c4cccc(c4)S(=O)(=O)Nc4nc(cc(-c5c(C)cccc5C)n4)OC[C@H]3CC(C)C)C2)C1 [Compound 335] | ++ (++ is 30-60%) | < 1000 nM | – | – |
| COC(=O)N1CCC2(CC(N3C(=O)c4cccc(c4)S(=O)(=O)Nc4nc(cc(-c5c(C)cccc5C)n4)OC[C@H]3CC(C)C)C2)C1 (stereo partly shown) [Compound 325] | +++ (+++ is >60%) | < 1000 nM | – | – |

Now from value to compound:

| Ent. A Max Activity (%) (CFTR [1]) | EC50 (CFTR [1]) | Ent. B Max Activity (%) (CFTR [2]) | EC50 (CFTR [2]) | Structure (SMILES) |
| --- | --- | --- | --- | --- |
| +++ (+++ is >60%) | < 1000 nM | +++ (+++ is >60%) | < 1000 nM | Cc1cccc(C)c1-c1cc2nc(n1)NS(=O)(=O)c1cccc(n1)C(=O)N(C1CC3(CC3)C1)[C@H](CC(C)(C)C)CO2 [Compound 401] |
| +++ (+++ is >60%) | < 1000 nM | +++ (+++ is >60%) | < 1000 nM | Cc1cccc(C)c1-c1cc2nc(n1)NS(=O)(=O)c1cccc(c1)C(=O)N(C1CC3(CCN(C)CC3)C1)[C@H](CC(C)C)CO2 [Compound 15, (11R)-6-(2,6-Dimethylphenyl)-11-isobutyl-12-(7-methyl-7-azaspiro[3.5]nonan-2-yl)-2,2-dioxo-9-oxa-2λ^6-thia-3,5,12,19-tetrazatricyclo[12.3.1.14,8]nonadeca-1(18),4(19),5,7,14,16-hexaen-13-one] |
| +++ (+++ is >60%) | < 1000 nM | +++ (+++ is >60%) | < 1000 nM | Cc1cccc(C)c1-c1cc2nc(n1)NS(=O)(=O)c1cccc(c1)C(=O)N(C1CN(C3CC4(CC4)C3)C1)[C@H](CC(C)C)CO2 [Compound 101, (11R)-6-(2,6-Dimethylphenyl)-11-isobutyl-2,2-dioxo-12-(1-spiro[2.3]hexan-5-ylazetidin-3-yl)-9-oxa-2λ^6-thia-3,5,12,19-tetrazatricyclo[12.3.1.14,8]nonadeca-1(18),4(19),5,7,14,16-hexaen-13-one] |
| +++ (+++ is >60%) | < 1000 nM | +++ (+++ is >60%) | < 1000 nM | Cc1cccc(C)c1-c1cc2nc(n1)NS(=O)(=O)c1cccc(c1)C(=O)N([C@H]1CC3(C[C@H](C(=O)N(C)C)C3)C1)[C@H](CC(C)C)CO2 (stereo partly shown) [Compound 343] |
| +++ (+++ is >60%) | < 1000 nM | +++ (+++ is >60%) | < 1000 nM | Cc1cccc(C)c1-c1cc2nc(n1)NS(=O)(=O)c1cccc(c1)C(=O)N([C@H]1C[C@@H](C#N)C1)[C@H](CC(C)C)CO2 (stereo in doubt) [Compound 469] |
| ++ (++ is 30-60%) | < 1000 nM | + (+ is <300%) | < 1000 nM | Cc1cccc(C)c1-c1cc2nc(n1)NS(=O)(=O)c1cccc(c1)C(=O)N(C1CC3(CC3)C1)[C@@H](CC(C)C)CO2 [Compound 474, (11S)-6-(2,6-Dimethylphenyl)-11-isobutyl-2,2-dioxo-12-spiro[2.3]hexan-5-yl-9-oxa-2λ^6-thia-3,5,12,19-tetrazatricyclo[12.3.1.14,8]nonadeca-1(18),4(19),5,7,14,16-hexaen-13-one] |
| +++ (+++ is >60%) | < 1000 nM | +++ (+++ is >60%) | < 1000 nM | Cc1cccc(C)c1-c1cc2nc(n1)NS(=O)(=O)c1cccc(c1)C(=O)N([C@H]1CC3(C[C@H](N(C)C)C3)C1)[C@H](CC(C)C)CO2 (stereo partly shown) [Compound 313] |

From patent US20230382925A1, “MODULATORS OF CYSTIC FIBROSIS TRANSMEMBRANE CONDUCTANCE REGULATOR” (VERTEX PHARMACEUTICALS INCORPORATED, priority 2020, published 2023)
